Laboratory results reported in ChEMBL document CHEMBL1153701, “Synthesis and evaluation of antiallodynic and anticonvulsant activity of novel amide and urea derivatives of valproic acid analogues” (2009).
Calls of active or inactive are those of the source. No cut-off for these calls is given here.

What was measured:
[1] = tested on: Mus musculus; test: Antiepileptic activity in ip dosed CF1 mouse assessed as inhibition of maximal electroshock-induced seizures; assay type: functional
[2] = tested on: Rattus norvegicus; test: Antiallodynic activity in ip dosed rat assessed as protection against spinal nerve ligation-induced neuropathic pain; assay type: functional
[3] = species: Rattus norvegicus; test: Ratio of ED50 for antiallodynic activity in rat assessed as protection against spinal nerve ligation-induced neuropathic pain to ED50 for antiepileptic activity in rat by maximal electroshock-induced seizures assay; assay type: functional
[4] = tested on: Mus musculus; test: Neurotoxicity in CF1 mouse assessed as protection against motor impairment at 100 mg/kg, ip after 0.5 hrs by rotarod test; assay type: functional, organism-based; design: dose 100 mg/kg
[5] = tested on: Mus musculus; test: Antiepileptic activity in CF1 mouse assessed as inhibition of subcutaneous pentylenetetrazole-induced seizures at 300 mg/kg, ip after 0.5 hrs; assay type: functional, organism-based; design: dose 300 mg/kg
[6] = tested on: Mus musculus; test: Neurotoxicity in CF1 mouse assessed as protection against motor impairment at 300 mg/kg, ip after 4 hrs by rotarod test; assay type: functional, organism-based; design: dose 300 mg/kg
[7] = tested on: Mus musculus; test: Antiepileptic activity in CF1 mouse assessed as inhibition of subcutaneous pentylenetetrazole-induced seizures at 30 mg/kg, ip after 0.5 hrs; assay type: functional, organism-based; design: dose 30 mg/kg
[8] = tested on: Mus musculus; test: Antiepileptic activity in CF1 mouse assessed as inhibition of maximal electroshock-induced seizures at 100 mg/kg, ip after 4 hrs; assay type: functional, organism-based; design: dose 100 mg/kg
[9] = tested on: Mus musculus; test: Neurotoxicity in CF1 mouse assessed as protection against motor impairment at 30 mg/kg, ip after 4 hrs by rotarod test; assay type: functional, organism-based; design: dose 30 mg/kg
[10] = tested on: Mus musculus; test: Antiepileptic activity in CF1 mouse assessed as inhibition of maximal electroshock-induced seizures at 30 mg/kg, ip after 4 hrs; assay type: functional, organism-based; design: dose 30 mg/kg
[11] = tested on: Mus musculus; test: Antiepileptic activity in CF1 mouse assessed as inhibition of subcutaneous pentylenetetrazole-induced seizures at 300 mg/kg, ip after 4 hrs; assay type: functional, organism-based; design: dose 300 mg/kg
[12] = tested on: Mus musculus; test: Antiepileptic activity in CF1 mouse assessed as inhibition of subcutaneous pentylenetetrazole-induced seizures at 30 mg/kg, ip after 4 hrs; assay type: functional, organism-based; design: dose 30 mg/kg
[13] = tested on: Mus musculus; test: Neurotoxicity in CF1 mouse assessed as protection against motor impairment at 30 mg/kg, ip after 0.5 hrs by rotarod test; assay type: functional, organism-based; design: dose 30 mg/kg
[14] = tested on: Rattus norvegicus; test: Anticonvulsant activity in albino Sprague-Dawley rat assessed as protection against pilocarpine-induced seizure at 450 mg/kg, ip; assay type: functional, organism-based; design: dose 450 mg/kg
[15] = tested on: Rattus norvegicus; test: Anticonvulsant activity in albino Sprague-Dawley rat assessed as protection against pilocarpine-induced seizure at 600 mg/kg, ip treated after 30 mins of pilcarpine challenge; assay type: functional, organism-based; design: dose 600 mg/kg
[16] = tested on: Mus musculus; test: Antiepileptic activity in CF1 mouse assessed as inhibition of maximal electroshock-induced seizures at 300 mg/kg, ip after 4 hrs; assay type: functional, organism-based; design: dose 300 mg/kg
[17] = tested on: Mus musculus; test: Antiepileptic activity in CF1 mouse assessed as inhibition of maximal electroshock-induced seizures at 300 mg/kg, ip after 0.5 hrs; assay type: functional, organism-based; design: dose 300 mg/kg
[18] = tested on: Mus musculus; test: Neurotoxicity in CF1 mouse assessed as protection against motor impairment at 300 mg/kg, ip after 0.5 hrs by rotarod test; assay type: functional, organism-based; design: dose 300 mg/kg
[19] = tested on: Mus musculus; test: Antiepileptic activity in CF1 mouse assessed as inhibition of maximal electroshock-induced seizures at 100 mg/kg, ip after 0.5 hrs; assay type: functional, organism-based; design: dose 100 mg/kg
[20] = tested on: Mus musculus; test: Neurotoxicity in CF1 mouse assessed as protection against motor impairment at 100 mg/kg, ip after 4 hrs by rotarod test; assay type: functional, organism-based; design: dose 100 mg/kg
[21] = tested on: Mus musculus; test: Antiepileptic activity in CF1 mouse assessed as inhibition of maximal electroshock-induced seizures at 30 mg/kg, ip after 0.5 hrs; assay type: functional, organism-based; design: dose 30 mg/kg
[22] = tested on: Mus musculus; test: Antiepileptic activity in CF1 mouse assessed as inhibition of subcutaneous pentylenetetrazole-induced seizures at 100 mg/kg, ip after 0.5 hrs; assay type: functional, organism-based; design: dose 100 mg/kg
[23] = tested on: Mus musculus; test: Antiepileptic activity in CF1 mouse assessed as inhibition of subcutaneous pentylenetetrazole-induced seizures at 100 mg/kg, ip after 4 hrs; assay type: functional, organism-based; design: dose 100 mg/kg
[24] = tested on: Rattus norvegicus; test: Anticonvulsant activity in ip dosed albino Sprague-Dawley rat assessed as protection against pilocarpine-induced seizure; assay type: functional
[25] = tested on: Rattus norvegicus; test: Anticonvulsant activity in albino Sprague-Dawley rat assessed as protection against pilocarpine-induced seizure at 65 mg/kg, ip; assay type: functional, organism-based; design: dose 65 mg/kg
[26] = tested on: Rattus norvegicus; test: Anticonvulsant activity in albino Sprague-Dawley rat assessed as protection against pilocarpine-induced seizure at 130 mg/kg, ip treated after 30 mins of pilcarpine challenge; assay type: functional, organism-based; design: dose 130 mg/kg
[27] = tested on: Rattus norvegicus; test: Antiallodynic activity in rat assessed as protection against spinal nerve ligation-induced neuropathic pain at 80 mg/kg, ip after 60 mins; assay type: functional, organism-based; design: dose 80 mg/kg
[28] = tested on: Rattus norvegicus; test: Antiallodynic activity in rat assessed as protection against spinal nerve ligation-induced neuropathic pain at 80 mg/kg, ip after 30 mins; assay type: functional, organism-based; design: dose 80 mg/kg
[29] = tested on: Rattus norvegicus; test: Antiallodynic activity in rat assessed as protection against spinal nerve ligation-induced neuropathic pain at 80 mg/kg, ip after 120 mins; assay type: functional, organism-based; design: dose 80 mg/kg
[30] = tested on: Rattus norvegicus; test: Antiallodynic activity in rat assessed as protection against spinal nerve ligation-induced neuropathic pain at 80 mg/kg, ip after 240 mins; assay type: functional, organism-based; design: dose 80 mg/kg
[31] = tested on: Rattus norvegicus; test: Antiallodynic activity in rat assessed as protection against spinal nerve ligation-induced neuropathic pain at 80 mg/kg, ip after 180 mins; assay type: functional, organism-based; design: dose 80 mg/kg
[32] = tested on: Rattus norvegicus; test: Anticonvulsant activity in albino Sprague-Dawley rat assessed as protection against pilocarpine-induced seizure at 200 mg/kg, ip; assay type: functional, organism-based; design: dose 200 mg/kg

Compound	ED50 [1]	ED50 [2]	Activity [4]	Activity [5]	Activity [6]	Activity [7]	Activity [8]	Activity [9]	Activity [10]	Activity [11]	Activity [12]	Activity [13]	Activity [16]	Activity [17]	Activity [18]	Activity [19]	Activity [20]	Activity [21]	Activity [22]	Activity [23]	other results
CC(C)C(C(N)=O)C(C)C	51 mg/kg	58 mg/kg																			ratio [3]: 0.88
CCCC(CCC)C(N)=O [VALPROMIDE]	32 mg/kg	61 mg/kg																			ratio [3]: 0.52
CC(C)C(C)C(N)=O (configuration not stated)			inactive	inactive	inactive	inactive	inactive	inactive	inactive	inactive	inactive	inactive	inactive	inactive	inactive	inactive	inactive	inactive	inactive	inactive	Activity [14]: Active; Activity [15]: Active
CCCC(C(N)=O)C(C)CC (configuration not stated)	inactive	49 mg/kg	inactive	Active	inactive	inactive	inactive	inactive	inactive	inactive	inactive	inactive	inactive	Active			inactive	inactive	inactive	inactive	ED50 [24]: 84 mg/kg; ED97 [24]: 149 mg/kg; Activity [25]: Active; Activity [26]: Active
CCC(C)C(N)=O (configuration not stated)			inactive	inactive	inactive	inactive	inactive	inactive	inactive	inactive	inactive	inactive	inactive	inactive	inactive	inactive	inactive	inactive	inactive	inactive	Activity [27]: inactive; Activity [28]: inactive; Activity [29]: inactive
CCCC(C(N)=O)C(C)(C)C (configuration not stated)				Active		inactive		inactive	inactive	inactive	inactive	inactive	Active	Active			inactive	inactive	inactive	inactive	Activity [25]: Active; Activity [26]: Active
CCCCC(CC)C(=O)NC(N)=O (configuration not stated)			inactive	Active	inactive	inactive	inactive	inactive	inactive	inactive	inactive	inactive	inactive	Active	Active		inactive	inactive	inactive	inactive	ED50 [24]: 247 mg/kg; ED97 [24]: 439 mg/kg; Activity [30]: inactive; Activity [27]: inactive; Activity [28]: inactive; Activity [31]: inactive; Activity [29]: inactive
CCC(C(N)=O)C(C)(C)C (configuration not stated)			inactive	Active	inactive	inactive	inactive	inactive	inactive	inactive	inactive	inactive	Active	inactive		inactive	inactive	inactive	inactive	inactive	ED50 [24]: 257 mg/kg; ED97 [24]: 451 mg/kg; Activity [32]: Active; Activity [30]: inactive
CCC(C)C(C(N)=O)C(C)C (configuration not stated)	inactive	50 mg/kg	Active	Active		inactive	inactive	inactive	inactive	inactive	inactive	inactive	inactive	Active	Active	Active	inactive	inactive	Active	inactive	
CCCC(C(N)=O)C(C)C (configuration not stated)	22 mg/kg	42 mg/kg																			ratio [3]: 0.52
CNC(=O)CC(C)(C)C			inactive	inactive	inactive	inactive	inactive	inactive	inactive	inactive	inactive	inactive	inactive	inactive	inactive	inactive	inactive	inactive	inactive	inactive	Activity [30]: inactive; Activity [27]: inactive; Activity [28]: inactive; Activity [31]: inactive; Activity [29]: inactive
CCC(C)C(CC)C(N)=O (configuration not stated) [VALNOCTAMIDE]	29 mg/kg	52 mg/kg																			ratio [3]: 0.56
CCCC(C)C(N)=O (configuration not stated)			inactive	inactive	inactive	inactive	inactive	inactive	inactive	inactive	inactive	inactive	inactive	inactive	inactive	inactive	inactive	inactive	inactive	inactive	Activity [27]: inactive; Activity [28]: inactive
CC(C)(C)CC(N)=O			inactive	inactive		inactive	inactive	inactive	inactive	inactive	inactive	inactive	inactive	inactive		inactive	inactive	inactive	inactive		Activity [30]: inactive; Activity [27]: inactive; Activity [28]: inactive; Activity [31]: inactive; Activity [29]: inactive
